# Measured values reported in US8124382B2, “Methods, microarray, and kits for detection of drug resistance genes in gram-negative bacteria” (CapitalBio Corporation, priority 2006, dated 2012).
# Columns and labels:
# Test in all cases: in vitro antimicrobial susceptibility test (MIC, CLSI standard method)
# E. coli Z302 = type: cell-based; conditions: for The in vitro antimicrobial susceptibility test/MIC: strain Z302 (E. coli), CLA at fixed concentration 4 μg/ml in combinations
# Protocol: (§1) Three gram-negative bacteria in Table 3 were tested. The in vitro antimicrobial susceptibility result was obtained according to the standard method of Clinical and Laboratory Standards Institute (CLSI).
# (§2) The resistance genes in E. coli Z302 were detected using the microarray in FIG. 1 according to the method in Example 1. […] Thus the kit for detection of resistance genes in gram-negative bacteria in the present invention can be used to specifically detect the resistance genes in the prevalent gram-negative bacteria E. coli.
# E. cloacae TR3104 = type: cell-based; conditions: strain TR3104; for The in vitro antimicrobial susceptibility test/MIC: CLA at fixed concentration 4 μg/ml in combinations
# Protocol: as §1
# as §2, with “cloacae TR3104” for “coli Z302”, “example” for “Example”, “cloacae.” for “coli.”
# K. pneumoniae BJ-35 = type: cell-based, Klebsiella pneumoniae; conditions: for The in vitro antimicrobial susceptibility test/MIC: strain BJ-35 (K. pneumoniae), CLA at fixed concentration 4 μg/ml in combinations
# Protocol: as §1
# K. pneumoniae E298 = type: cell-based, Klebsiella pneumoniae; conditions: for The in vitro antimicrobial susceptibility test/MIC: strain E298 (K. pneumoniae), CLA at fixed concentration 4 μg/ml in combinations
# Protocol: as §1
# K. pneumoniae BJ-7 = type: cell-based, Klebsiella pneumoniae; conditions: for The in vitro antimicrobial susceptibility test/MIC: strain BJ-7 (K. pneumoniae), CLA at fixed concentration 4 μg/ml in combinations
# Protocol: as §1
# [1] = strain Z302, shown by microarray-detected genes, consistent with MIC results
# [2] = strain BJ-35, shown by microarray-detected genes, consistent with MIC results
# [3] = strain E298, shown by microarray-detected genes, consistent with MIC results
# [4] = strain BJ-7, shown by microarray-detected genes, consistent with MIC results
smiles,measurement,setting,value
"C[C@@H](O)[C@H]1C(=O)N2C(C(=O)O)=C(SCCN=CN)C[C@H]12 [IMP, imipenem]",The in vitro antimicrobial susceptibility test/MIC,E. coli Z302,4 µg/mL
same,The in vitro antimicrobial susceptibility test/MIC,E. cloacae TR3104,4 µg/mL
same,The in vitro antimicrobial susceptibility test/MIC,K. pneumoniae BJ-35,<0.5 µg/mL
same,The in vitro antimicrobial susceptibility test/MIC,K. pneumoniae E298,<0.5 µg/mL
same,The in vitro antimicrobial susceptibility test/MIC,K. pneumoniae BJ-7,<0.5 µg/mL
"CO[C@@]1(NC(=O)Cc2cccs2)C(=O)N2C(C(=O)O)=C(COC(N)=O)CS[C@@H]21 [FOX, cefoxitin]",The in vitro antimicrobial susceptibility test/MIC,E. coli Z302,≧128 μg/ml
same,resistance or susceptibility of the isolate,E. coli Z302; [1],resistant
same,The in vitro antimicrobial susceptibility test/MIC,E. cloacae TR3104,≧256 μg/ml
same,resistance or susceptibility of the isolate,"E. cloacae TR3104; shown by microarray-detected genes, consistent with MIC results",resistant
same,The in vitro antimicrobial susceptibility test/MIC,K. pneumoniae BJ-35,2 µg/mL
same,resistance or susceptibility of the isolate,K. pneumoniae BJ-35; [2],susceptible
same,The in vitro antimicrobial susceptibility test/MIC,K. pneumoniae E298,≧128 μg/ml
same,resistance or susceptibility of the isolate,K. pneumoniae E298; [3],resistant
same,The in vitro antimicrobial susceptibility test/MIC,K. pneumoniae BJ-7,8 µg/mL
same,resistance or susceptibility of the isolate,K. pneumoniae BJ-7; [4],susceptible
"CC(C)(O/N=C(\C(=O)N[C@@H]1C(=O)N2C(C(=O)[O-])=C(C[n+]3ccccc3)CS[C@H]12)c1csc(N)n1)C(=O)O [CAZ, ceftazidime]",The in vitro antimicrobial susceptibility test/MIC,E. coli Z302,≧128 μg/ml
same,The in vitro antimicrobial susceptibility test/MIC,E. cloacae TR3104,4 µg/mL
same,The in vitro antimicrobial susceptibility test/MIC,K. pneumoniae BJ-35,4 µg/mL
same,The in vitro antimicrobial susceptibility test/MIC,K. pneumoniae E298,≧128 μg/ml
same,The in vitro antimicrobial susceptibility test/MIC,K. pneumoniae BJ-7,32 µg/mL
O=C(O)[C@H]1/C(=C/CO)O[C@@H]2CC(=O)N21 [clavulanate],inhibition of the isolate's resistance by clavulanate,E. coli Z302; [1],not inhibited
same,inhibition of the isolate's resistance by clavulanate,K. pneumoniae BJ-35; [2],inhibited
same,inhibition of the isolate's resistance by clavulanate,K. pneumoniae E298; [3],not inhibited
same,inhibition of the isolate's resistance by clavulanate,K. pneumoniae BJ-7; [4],inhibited
"CO/N=C(\C(=O)N[C@@H]1C(=O)N2C(C(=O)O)=C(COC(C)=O)CS[C@H]12)c1csc(N)n1 [CTX, cefotaxime]",The in vitro antimicrobial susceptibility test/MIC,E. coli Z302,≧128 μg/ml
same,The in vitro antimicrobial susceptibility test/MIC,E. cloacae TR3104,64 µg/mL
same,The in vitro antimicrobial susceptibility test/MIC,K. pneumoniae BJ-35,8 µg/mL
same,The in vitro antimicrobial susceptibility test/MIC,K. pneumoniae E298,≧128 μg/ml
same,The in vitro antimicrobial susceptibility test/MIC,K. pneumoniae BJ-7,64 µg/mL
